From patent US6878522B2, “Methods for the identification of compounds useful for the treatment of disease states mediated by prostaglandin D2” (priority 2000, dated 2005)

What was measured:
Assay type in all cases: cell-based
[1] = test system: isolated human eosinophils; assay: [Ca2+]i mobilization in isolated human eosinophils
Text: Calcium mobilization can be detected and measured by flow cytometry, and by labeling with fluorescent dyes that are trapped intracellularly. […] The ratio of fluorescence produced by the calcium-bound dye to that produce by the unbound dye is used to estimate the intracellular calcium concentration. In one embodiment, for example, the following method can be used. Cells that express CRTH2 are collected, and resuspended in fresh media at ˜2×10^5/ml the day before performing the calcium flux assay. Cells are incubated at 37° C. for not longer than 20-30 minutes, and then spun down and resuspended in 50 ml fresh PTI buffer (Hank's Buffer, pH 7.2-7.4; 10 mM Hepes; 1.6 mM CaCl2) containing Indo-1 AM, pre-warmed to 37° C., at a concentration of 10 million per ml. Cells are excited, and fluorescence is measured using a fluorimeter (Photon Technology Corporation, International). After the readout has stabilized, the time axis is reset, and PGD2 is added at a specific time point (e.g., 20 seconds). After response, the following reagents are added to the cuvette, to release and chelate total calcium, in the following order: 20 μl of 18% Triton X-100, 20 μl of 3M Tris, pH 8.5, and 20 μl of 0.5 M EGTA, pH 8.5. The experiment is repeated in the presence and the absence of a test compound. […] Therefore, in the presence of an […] test compound, the EC50 would be expected to be higher than this value, whereas in the presence of an agonist test compound, the EC50 would be expected to decrease.

[2] = test system: human whole blood eosinophil; assay: Human whole blood eosinophil actin-polymerization response; conditions: read-out: Actin-polymer EC50
Text: Yet another secondary screening assay is an actin polymerization assay. Another biological effect of the interaction of PGD2 with CRTH2 is actin polymerization. Thus, an actin polymerization assay may be used as a secondary screen to characterize the activity of a compound isolated in the primary screening assays of the invention. In one embodiment, actin polymerization may be assayed using an actin-specific fluorescent label, nitrobenzoxadiazole (NBD)-phallacidin, which binds polymerized actin fiber. In a specific embodiment, the assay may be performed as follows: cell preparations are resuspended at 5-10×10^6 cells/ml in RPMI 1640 plus 10 mM HEPES, 100/10 Pen/Strep, and 0.5% FCS. The cell suspension is aliquoted (100 μL per well) into a 96-well U-bottom polypropylene microtiter plate. 50 ul of the appropriate stimulus (PGD2 or test compound, or both PGD2 and test compound) is added using an 8-channel pipette followed exactly 25 seconds later by 50 ul of a stopping solution which contains lysophosphotidylcholine (0.5 mg/ml), Hank's balanced salt solution (100 ul 10×), 16% formaldehyde (800 ul), and 6.6 uM NBD-phallacidin in MEOH (100 ul). The plate is allowed to sit at room temperature for 15 minutes. The plate is then centrifuged at 1000 rpm for 5 minutes, the supernatants flicked off and the cell pellets resuspended in 250 ul PBS plus 2%FCS and 0.2% sodium azide. Each sample is then read on a FACS Caliber instrument. Cells are gated using the forward scatter/side scatter data in the lymphocyte area. Responses are measured by the change in median FL-1 fluorescence between vehicle treated cells and stimulus treated cells. Test compounds can be assayed in the presence and absence of PGD2, and compared to a sample containing PGD2 alone. A compound that reduces PGD2-induced actin polymerization of CRTH2 cells is identified as a candidated CRTH2 antagonist.

[3] = test system: isolated human eosinophils; assay: Reactive oxygen species (ROS) release in isolated human eosinophils
Protocol: Another secondary assay is the reactive oxygen species release assay. One measure of PGD2-induced activation of CRTH2 cells, such as eosinophils, is the intracellular release of reactive oxygen species. This can be tested in a reactive oxygen species release assay, or ROS, using lucigenin-dependent chemiluminescence to measure reactive oxygen species release. In this method, freshly isolated eosinophils are prepared, by standard methods, and resuspended at concentration 2-4×10^6 cells/ml in (RPMI; 10 mM HEPES; 1× Pen/Strep; 0.5% FBS) at room temperature. Immediately prior to use, 1 ml of cell suspension is added to 9 ml of buffer, prewarmed to 37° C. for 15 minutes, and added 0.5 ml of 200 mM Lucigenin.
Test compounds (made as 10,000× DMSO stocks) are diluted in buffer with DMSO (1.5 ul of DMSO/2.5 ml Buffer) and 25 μl/well added to white 96-well culture plate and placed in a 37° C. incubator. Isolated cells (held at room temperature) are diluted with room temperature buffer to 2-4×10^6 cells/ml, and incubated in a water bath at 37° C. for 15 minutes. At 15 minutes, 0.5 ml 200 mM lucigenin (bis-N-Methylacridinium Nitrate; Sigma, St. Louis, Mo.) is added to 10 ml of the cell suspension, mixed, and 100 μl/well is added to the prewarmed microtiter plate. The plate is returned to 37° C. for 5 minutes, at which time 25 μl of stimulus is added) The plate is read in the luminometer for 8 cycles. The luminescence of test compounds can be tested in the presence of PGD2, relative to a control sample containing PGD2 alone. A compound that interferes with the ability of PGD2 to result in intracellular reactive oxygen species release in CRTH2 cells, is a candidate for a CRTH2 antagonist.

Structure (SMILES)	EC50 [1] [µM]	EC50 [2] [µM]	EC50 [3] [µM]
O=C(O)CCCCCCC1C(=O)NC(=O)N1CCC(O)C1CCCCC1 (stereo not drawn) [BW-245C]	> 1	> 1	> 1
CCCCC[C@H](O)/C=C/[C@H]1C(=O)C[C@H](O)[C@@H]1C/C=C\CCCC(=O)O [PGD2, prostaglandin D2]	0.03	0.004	0.002
CCCCC[C@H](O)/C=C/[C@H]1[C@H](O)CC(=O)[C@@H]1C/C=C\CCCC(=O)O [PGE2]	> 1	> 300	> 0.1
CCCCC[C@H](O)/C=C/[C@@H]1[C@@H](C/C=C\CCCC(=O)O)[C@@H](O)C[C@H]1O [PGF2α]	> 1	1.9	> 1
